Earlier results, collected in patent US9072693B2 (priority 2005, dated 2015).

How the values were obtained:
psoriatic plaques = conditions: topical (Lu et al. 1996)
women with PMS [1] = conditions: higher doses once or twice during the luteal phase (Miner 2002)
women with PMS [2] = system: women with PMS

For `C=C1CC[C@H](O)C/C1=C/C=C1\CCC[C@]2(C)[C@@H]([C@H](C)CCCC(C)C)CC[C@@H]12` [cholecalciferol], the safety (10,000 IU daily for 5 months (Heaney)) is listed as “safe” and the “daily dose at which toxicity occurs” value (oral ingestion, daily (Vieth R)) is listed as 40,000 IU.

In the case of `C=C1/C(=C\C=C2/CCC[C@]3(C)[C@@H]([C@H](C)CCCC(C)(C)O)CC[C@@H]23)C[C@@H](O)C[C@@H]1O` [Calcitriol], the “effect in psoriatic plaques” value (psoriatic plaques) is given as “decrease keratinocyte proliferation, normalize keratinocyte differentiation and decrease immune activation in plaques”.

In the case of `CNCCC(Oc1ccc(C(F)(F)F)cc1)c1ccccc1` (stereo not drawn) [fluoxetine], the “effect on PMS symptomatology” value (women with PMS [1]) is given as “effective in reducing symptomatology”.

In the case of `O=C([O-])[O-].[Ca+2]` [calcium, calcium carbonate], the “reduction of overall PMS symptoms” value (women with PMS [2]; a number of studies, all 4 major categories of PMS) is listed as 50% and the “overall reduction in total symptom scores compared to placebo” value (women with PMS [2]; elemental calcium 1200 mg per day as calcium carbonate, within 3 months of therapy, premenopausal women 18-45 years) is listed as 48%.
